According to ChEMBL document CHEMBL3352523, “Synthesis and biological evaluation of podophyllotoxin congeners as tubulin polymerization inhibitors” (Bioorg Med Chem, 2014):
Activity calls are given as the source filed them. No cut-off for these calls is given here.

Key:
[1] = tested on: MCF7; test: Antiproliferative activity against human MCF7 cells assessed as growth inhibition after 48 hrs by SRB assay; type: functional; conditions: MCF7, 48 h
[2] = tested on: HeLa; test: Antiproliferative activity against human HeLa cells assessed as growth inhibition after 48 hrs by SRB assay; type: functional
[3] = (§1) Antiproliferative activity against human MIAPaCa2 cells assessed as growth inhibition after 48 hrs by SRB assay; type: functional; conditions: MIA PaCa-2, 48 h
[4] = target: Tubulin (Bos taurus, UniProt Q6B856+Q862L2+Q862F3); test: Inhibition of bovine brain tubulin polymerization by fluorescence analysis
[5] = tested on: HeLa; test: Antimitotic activity against human HeLa cells assessed as accumulation at G2/M phase at 5 uM after 24 hrs by PI staining based flow cytometry (reference value: 18.35%); type: functional
[6] = tested on: MIA PaCa-2; test: as §1; type: functional
[7] = tested on: HeLa; test: Induction of microtubule destabilization in human HeLa cells at 5 uM after 24 hrs by immunoblot analysis; type: cell-based
[8] = tested on: HeLa; test: Induction of microtubule depolymerization in human HeLa cells at 5 uM after 24 hrs by DAPI staining; type: cell-based

Structure (SMILES) | GI50 [1] [nM] | GI50 [2] [nM] | GI50 [3] [nM] | IC50 [4] [µM] | Activity [5] [%] | GI50 [6] | Activity [7] | Activity [8]
COC(=O)[C@H]1C(c2nc3cc(C(F)(F)F)cc(Br)c3[nH]2)=Cc2cc3c(cc2[C@H]1c1cc(OC)c(OC)c(OC)c1)OCO3 | 2100 | 6400 | 3100 | – | – | – | – | –
COC(=O)[C@H]1C(c2nc3cc(C)c(C)cc3[nH]2)=Cc2cc3c(cc2[C@H]1c1cc(OC)c(OC)c(OC)c1)OCO3 | 160 | 3600 | 1500 | – | – | – | – | –
COC(=O)[C@H]1C(c2nc3ccccc3[nH]2)=Cc2cc3c(cc2[C@H]1c1cc(OC)c(OC)c(OC)c1)OCO3 | 200 | 200 | 1200 | 1.29 | 56.05 | – | – | –
COC(=O)[C@H]1C(c2nc3ccc(F)cc3[nH]2)=Cc2cc3c(cc2[C@H]1c1cc(OC)c(OC)c(OC)c1)OCO3 | 20 | 4300 | 3900 | – | – | – | – | –
COC(=O)Nc1nc2cc(C(=O)c3cccs3)ccc2[nH]1 [NOCODAZOLE] | 940 | 810 | 950 | – | – | – | – | –
COC(=O)[C@H]1C(C=O)=Cc2cc3c(cc2[C@H]1c1cc(OC)c(OC)c(OC)c1)OCO3 | 910 | 690 | 730 | – | – | – | – | –
COC(=O)[C@H]1C(c2nc3ccc(C)cc3[nH]2)=Cc2cc3c(cc2[C@H]1c1cc(OC)c(OC)c(OC)c1)OCO3 | 3070 | 2800 | 18100 | – | – | – | – | –
COC(=O)[C@H]1C(c2nc3ccc(Cl)cc3[nH]2)=Cc2cc3c(cc2[C@H]1c1cc(OC)c(OC)c(OC)c1)OCO3 | 2090 | 2160 | 1300 | – | – | – | – | –
COC(=O)[C@H]1C(c2nc3ccc(F)c(Cl)c3[nH]2)=Cc2cc3c(cc2[C@H]1c1cc(OC)c(OC)c(OC)c1)OCO3 | 2300 | 24200 | – | – | – | inactive | – | –
COC(=O)[C@H]1C(c2nc3cc4ccccc4cc3[nH]2)=Cc2cc3c(cc2[C@H]1c1cc(OC)c(OC)c(OC)c1)OCO3 | 1200 | 3800 | 2560 | – | – | – | – | –
COC(=O)[C@H]1C(c2nc3ccc(Br)cc3[nH]2)=Cc2cc3c(cc2[C@H]1c1cc(OC)c(OC)c(OC)c1)OCO3 | 540 | 210 | < 10 | 0.86 | 73.96 | – | Active | Active
COc1cc([C@@H]2c3cc4c(cc3[C@H](O)[C@H]3COC(=O)[C@H]23)OCO4)cc(OC)c1OC [PODOFILOX] | 310 | 740 | 510 | – | – | – | – | –
COC(=O)[C@H]1C(c2nc3cc(Cl)c(Cl)cc3[nH]2)=Cc2cc3c(cc2[C@H]1c1cc(OC)c(OC)c(OC)c1)OCO3 | 580 | 19700 | 3200 | – | – | – | – | –
COC(=O)[C@H]1C(c2nc3ccc(C(F)(F)F)cc3[nH]2)=Cc2cc3c(cc2[C@H]1c1cc(OC)c(OC)c(OC)c1)OCO3 | 4800 | 5080 | – | – | – | inactive | – | –
COc1cc([C@@H]2c3cc4c(cc3[C@@H](O[C@@H]3O[C@@H]5CO[C@@H](C)O[C@H]5[C@H](O)[C@H]3O)[C@H]3COC(=O)[C@H]23)OCO4)cc(OC)c1O [ETOPOSIDE] | 250 | 620 | 1100 | – | – | – | – | –
COC(=O)[C@H]1C(c2nc3ccc(OC)cc3[nH]2)=Cc2cc3c(cc2[C@H]1c1cc(OC)c(OC)c(OC)c1)OCO3 | 2100 | 1040 | 1600 | 0.91 | 68.91 | – | Active | Active
